Tested on: MV-4-11 cells
Experiment: Gene expression microarray analysis (Affymetrix PrimeView) and GSEA
Format: cell-based, human
Design: RFU PODN (11730768_x_at) / Fold change /veh PODN (11730768_x_at) / RFU LINC00158 (11744669_a_at) / Fold change /veh LINC00158 (11744669_a_at) / RFU DUSP10 (11751237_a_at) / Fold change /veh DUSP10 (11751237_a_at) / RFU ID3 (11757404_x_at) / Fold change /veh ID3 (11757404_x_at) / RFU PLEKHG5 (11737974_s_at) / Fold change /veh PLEKHG5 (11737974_s_at) / RFU LRRC4B (11730491_at) / Fold change /veh LRRC4B (11730491_at) / RFU GIMAP4 (11747438_a_at) / Fold change /veh GIMAP4 (11747438_a_at) / RFU KRT8 (11758183_x_at) / Fold change /veh KRT8 (11758183_x_at) / RFU CNN1 (11734310_a_at) / Fold change /veh CNN1 (11734310_a_at) / RFU VPS37D (11726825_at) / Fold change /veh VPS37D (11726825_at) / RFU C10orf10 (11716522_x_at) / Fold change /veh C10orf10 (11716522_x_at) / RFU KIR2DL2 /// KIR2DL4 /// KIR2DL5A /// KIR2DL5B /// KIR2DS1 /// KIR2DS2 /// KIR2DS3 /// KIR2DS4 /// KIR3DL3 /// KIR3DL3 /// KIR3DS1 (11738374_at) / Fold change /veh KIR2DL2 /// KIR2DL4 /// KIR2DL5A /// KIR2DL5B /// KIR2DS1 /// KIR2DS2 /// KIR2DS3 /// KIR2DS4 /// KIR3DL3 /// KIR3DL3 /// KIR3DS1 (11738374_at) / RFU C1QL1 (11718748_at) / Fold change /veh C1QL1 (11718748_at) / RFU TMPRSS4 (11747572_a_at) / Fold change /veh TMPRSS4 (11747572_a_at) / RFU HAMP (11756126_x_at) / Fold change /veh HAMP (11756126_x_at) / RFU RNFT2 (11725882_a_at) / Fold change /veh RNFT2 (11725882_a_at) / RFU NR4A2 (11747474_a_at) / Fold change /veh NR4A2 (11747474_a_at) / RFU ABCC12 (11746883_a_at) / Fold change /veh ABCC12 (11746883_a_at) / RFU TMEM136 (11760407_x_at) / Fold change /veh TMEM136 (11760407_x_at) / RFU CLDN22 /// WWC2 (11732394_at) / Fold change /veh CLDN22 /// WWC2 (11732394_at) / RFU HLA-DPB1 (11760878_x_at) / Fold change /veh HLA-DPB1 (11760878_x_at) / RFU SPINT1 (11716480_a_at) / Fold change /veh SPINT1 (11716480_a_at) / RFU GAP43 (11754022_s_at) / Fold change /veh GAP43 (11754022_s_at) / RFU A4GNT (11735810_at) / Fold change /veh A4GNT (11735810_at) / RFU PRB3 (11715151_x_at) / Fold change /veh PRB3 (11715151_x_at) / RFU TUBB4B (11761932_at) / Fold change /veh TUBB4B (11761932_at) / RFU CAPN14 (11732068_a_at) / Fold change /veh CAPN14 (11732068_a_at) / RFU TMCC2 (11721928_a_at) / Fold change /veh TMCC2 (11721928_a_at) / RFU IRGQ (11745062_a_at) / Fold change /veh IRGQ (11745062_a_at) / RFU FAM174B (11720279_a_at) / Fold change /veh FAM174B (11720279_a_at) / RFU TMPRSS4 (11748680_a_at) / Fold change /veh TMPRSS4 (11748680_a_at) / RFU FAM212B (11763350_a_at) / Fold change /veh FAM212B (11763350_a_at) / RFU PLEKHG5 (11743358_a_at) / Fold change /veh PLEKHG5 (11743358_a_at) / RFU ZSCAN30 (11745921_a_at) / Fold change /veh ZSCAN30 (11745921_a_at) / RFU CMKLR1 (11741424_a_at) / Fold change /veh CMKLR1 (11741424_a_at) / RFU LOC101060620 /// MAPK8IP1 (11723275_at) / Fold change /veh LOC101060620 /// MAPK8IP1 (11723275_at) / RFU SPTSSB (11747773_x_at) / Fold change /veh SPTSSB (11747773_x_at) / RFU PRSS12 (11739890_at) / Fold change /veh PRSS12 (11739890_at) / RFU BIN1 (11741810_x_at) / Fold change /veh BIN1 (11741810_x_at) / RFU WNT11 (11732464_a_at) / Fold change /veh WNT11 (11732464_a_at) / RFU C10orf10 (11716521_a_at) / Fold change /veh C10orf10 (11716521_a_at) / RFU C5orf56 (11738089_at) / Fold change /veh C5orf56 (11738089_at) / RFU CYB561 (11721691_x_at) / Fold change /veh CYB561 (11721691_x_at) / RFU ANKRD19P (11752326_a_at) / Fold change /veh ANKRD19P (11752326_a_at) / RFU OR2T12 /// OR2T33 /// OR2T8 (11738714_s_at) / Fold change /veh OR2T12 /// OR2T33 /// OR2T8 (11738714_s_at) / RFU VCAN (11748164_a_at) / Fold change /veh VCAN (11748164_a_at) / RFU JSRP1 (11732532_at) / Fold change /veh JSRP1 (11732532_at) / RFU KRTAP10-11 (11738290_x_at) / Fold change /veh KRTAP10-11 (11738290_x_at) / RFU MYO3A (11730013_a_at) / Fold change /veh MYO3A (11730013_a_at) / RFU EBF3 (11725865_a_at) / Fold change /veh EBF3 (11725865_a_at) / RFU CAMK2N1 (11719241_x_at) / Fold change /veh CAMK2N1 (11719241_x_at) / RFU C5orf56 (11738088_a_at) / Fold change /veh C5orf56 (11738088_a_at) / RFU OLFML3 (11715873_a_at) / Fold change /veh OLFML3 (11715873_a_at) / RFU LOC100653217 /// NTM (11731650_a_at) / Fold change /veh LOC100653217 /// NTM (11731650_a_at) / RFU MAPK11 (11762145_a_at) / Fold change /veh MAPK11 (11762145_a_at) / RFU FIZ1 (11724087_x_at) / Fold change /veh FIZ1 (11724087_x_at) / RFU OASL (11726364_x_at) / Fold change /veh OASL (11726364_x_at) / RFU SOX15 (11748057_x_at) / Fold change /veh SOX15 (11748057_x_at) / RFU CD79A (11719716_a_at) / Fold change /veh CD79A (11719716_a_at) / RFU HIST1H1D (11736915_at) / Fold change /veh HIST1H1D (11736915_at) / RFU CASKIN2 (11723855_a_at) / Fold change /veh CASKIN2 (11723855_a_at) / RFU LOC730098 (11760151_x_at) / Fold change /veh LOC730098 (11760151_x_at) / RFU OR4N2 (11742367_at) / Fold change /veh OR4N2 (11742367_at) / RFU PRRT2 (11749266_a_at) / Fold change /veh PRRT2 (11749266_a_at) / RFU SNX32 (11753110_a_at) / Fold change /veh SNX32 (11753110_a_at) / RFU CDHR5 (11726645_a_at) / Fold change /veh CDHR5 (11726645_a_at) / RFU RCAN1 (11760418_a_at) / Fold change /veh RCAN1 (11760418_a_at) / RFU FAM167A (11723789_a_at) / Fold change /veh FAM167A (11723789_a_at) / RFU FAM26E (11764081_at) / Fold change /veh FAM26E (11764081_at) / RFU ISYNA1 (11749810_s_at) / Fold change /veh ISYNA1 (11749810_s_at) / RFU ACY1 (11761880_at) / Fold change /veh ACY1 (11761880_at) / RFU 11764098_at / Fold change /veh 11764098_at / RFU SAMD14 (11745864_x_at) / Fold change /veh SAMD14 (11745864_x_at) / RFU NPB (11741838_a_at) / Fold change /veh NPB (11741838_a_at) / RFU TMPRSS6 (11731388_a_at) / Fold change /veh TMPRSS6 (11731388_a_at) / RFU KRTAP10-2 (11738614_at) / Fold change /veh KRTAP10-2 (11738614_at) / RFU ARHGAP8 /// PRR5-ARHGAP8 (11727945_x_at) / Fold change /veh ARHGAP8 /// PRR5-ARHGAP8 (11727945_x_at) / RFU KRTAP5-7 /// NADSYN1 (11734609_at) / Fold change /veh KRTAP5-7 /// NADSYN1 (11734609_at) / RFU RASL12 (11751679_a_at) / Fold change /veh RASL12 (11751679_a_at) / RFU CDKN2B (11736163_a_at) / Fold change /veh CDKN2B (11736163_a_at) / RFU PRF1 (11729649_at) / Fold change /veh PRF1 (11729649_at) / RFU, ZNF638 /// ZNF638-IT1 / Fold change vs veh, ZNF638 /// ZNF638-IT1 / RFU, PANK3 / Fold change vs veh, PANK3 / RFU, SH3YL1 / Fold change vs veh, SH3YL1 / RFU, ZEB2 / Fold change vs veh, ZEB2 / RFU, NRIP1 / Fold change vs veh, NRIP1 / RFU, PTTG1IP / Fold change vs veh, PTTG1IP / RFU, CAPN2 / Fold change vs veh, CAPN2 / RFU, MED14 / Fold change vs veh, MED14 / RFU, SNORA58 / Fold change vs veh, SNORA58 / RFU, C1orf63 / Fold change vs veh, C1orf63 / RFU, LRRFIP1 / Fold change vs veh, LRRFIP1 / RFU, NDUFAF7 / Fold change vs veh, NDUFAF7 / RFU, SLC12A2 / Fold change vs veh, SLC12A2 / RFU, IBTK / Fold change vs veh, IBTK / RFU, ESF1 / Fold change vs veh, ESF1 / Fold change vs veh, TMEM50B / RFU, TAOK1 / Fold change vs veh, TAOK1 / RFU, ACBD3 / Fold change vs veh, ACBD3 / RFU, TMA16 / Fold change vs veh, TMA16 / RFU, RWDD3 / Fold change vs veh, RWDD3 / RFU, BCAT1 / Fold change vs veh, BCAT1 / RFU, EDEM3 / Fold change vs veh, EDEM3 / RFU, TMEM33 / Fold change vs veh, TMEM33 / RFU, WDR75 / Fold change vs veh, WDR75 / RFU, AHCTF1 / Fold change vs veh, AHCTF1 / RFU, TFRC / Fold change vs veh, TFRC / RFU, ZDHHC17 / Fold change vs veh, ZDHHC17 / RFU, NOM1 / Fold change vs veh, NOM1 / RFU, ARL8B / Fold change vs veh, ARL8B / RFU, ZBTB11 / Fold change vs veh, ZBTB11 / RFU, TAMM41 / Fold change vs veh, TAMM41 / RFU, KIAA1704 /// LOC100996395 / Fold change vs veh, KIAA1704 /// LOC100996395 / RFU, ING1 / Fold change vs veh, ING1 / RFU, TRMT61B / Fold change vs veh, TRMT61B / RFU, FUBP3 / Fold change vs veh, FUBP3 / RFU, TP53 / Fold change vs veh, TP53 / RFU, TNKS2 / Fold change vs veh, TNKS2 / RFU, ZFP14 / Fold change vs veh, ZFP14 / RFU, ACTR2 / Fold change vs veh, ACTR2 / RFU, PPP3R1 / Fold change vs veh, PPP3R1 / RFU, PIK3R1 / Fold change vs veh, PIK3R1 / RFU, HNRNPA1 / Fold change vs veh, HNRNPA1 / RFU, RNF170 / Fold change vs veh, RNF170 / RFU, ZNF28 / Fold change vs veh, ZNF28 / RFU, RNGTT / Fold change vs veh, RNGTT / RFU, OGT / Fold change vs veh, OGT / RFU, BRD1 / Fold change vs veh, BRD1 / RFU, MARS / Fold change vs veh, MARS / RFU, ZNF655 / Fold change vs veh, ZNF655 / RFU, FAHD1 / Fold change vs veh, FAHD1 / RFU, BDP1 / Fold change vs veh, BDP1 / RFU, LRRCC1 / Fold change vs veh, LRRCC1 / RFU, ARID1A / Fold change vs veh, ARID1A / RFU, ZNF146 / Fold change vs veh, ZNF146 / RFU, ZNF330 / Fold change vs veh, ZNF330 / RFU, GPN3 / Fold change vs veh, GPN3 / RFU, C9orf123 / Fold change vs veh, C9orf123 / RFU, N4BP2L2 / Fold change vs veh, N4BP2L2 / RFU, ARFIP1 / Fold change vs veh, ARFIP1 / RFU, FAM179B / Fold change vs veh, FAM179B / RFU, BCL10 / Fold change vs veh, BCL10 / RFU, UHRF1BP1L / Fold change vs veh, UHRF1BP1L / RFU, BET1 / Fold change vs veh, BET1 / RFU, CNOT2 / Fold change vs veh, CNOT2 / RFU, ZNF268 / Fold change vs veh, ZNF268 / Fold change vs veh, ZNF507 / RFU, DGCR2 / Fold change vs veh, DGCR2 / RFU, WDSUB1 / Fold change vs veh, WDSUB1 / Fold change vs veh, HSP90B1 /// MIR3652 / RFU, ADSS / Fold change vs veh, ADSS / RFU, GK / Fold change vs veh, GK / RFU, ZNF148 / Fold change vs veh, ZNF148 / RFU, TAF9 / Fold change vs veh, TAF9 / RFU, SLC1A5 / Fold change vs veh, SLC1A5 / RFU, SLMO2 / Fold change vs veh, SLMO2 / RFU, ABCC4 / Fold change vs veh, ABCC4 / RFU, LOC101060439 /// RAP1B / Fold change vs veh, LOC101060439 /// RAP1B / RFU, RFX7 / Fold change vs veh, RFX7 / RFU, GTPBP10 / Fold change vs veh, GTPBP10 / RFU, CNEP1R1 / Fold change vs veh, CNEP1R1 / RFU, BIVM-ERCC5 /// ERCC5 / Fold change vs veh, BIVM-ERCC5 /// ERCC5 / RFU, ILF3 / Fold change vs veh, ILF3 / RFU 11762660_at / Fold change /veh 11762660_at / RFU VCAN (11757783_s_at) / Fold change /veh VCAN (11757783_s_at) / RFU DDX43 (11728927_at) / Fold change /veh DDX43 (11728927_at) / RFU KRT8 (11758188_x_at) / Fold change /veh KRT8 (11758188_x_at) / RFU NKD1 (11759106_at) / Fold change /veh NKD1 (11759106_at) / RFU SRD5A1 (11742802_a_at) / Fold change /veh SRD5A1 (11742802_a_at) / RFU TPSAB1 /// TPSB2 (11721975_s_at) / Fold change /veh TPSAB1 /// TPSB2 (11721975_s_at) / RFU GSTM3 (11746129_a_at) / Fold change /veh GSTM3 (11746129_a_at) / RFU IL23R (11737362_x_at) / Fold change /veh IL23R (11737362_x_at) / RFU TMEM51 (11727254_a_at) / Fold change /veh TMEM51 (11727254_a_at) / RFU PIWIL2 (11732686_x_at) / Fold change /veh PIWIL2 (11732686_x_at) / RFU ORM1 (11744905_x_at) / Fold change /veh ORM1 (11744905_x_at) / RFU CCDC152 (11743942_at) / Fold change /veh CCDC152 (11743942_at) / RFU ECM1 (11717891_a_at) / Fold change /veh ECM1 (11717891_a_at) / RFU IL23R (11748794_a_at) / Fold change /veh IL23R (11748794_a_at) / RFU TNFAIP8L3 (11732012_x_at) / Fold change /veh TNFAIP8L3 (11732012_x_at) / RFU MBOAT4 (11741988_at) / Fold change /veh MBOAT4 (11741988_at) / RFU 11764193_at / Fold change /veh 11764193_at / RFU TMEM53 (11763286_at) / Fold change /veh TMEM53 (11763286_at) / RFU MAGEB2 (11727129_at) / Fold change /veh MAGEB2 (11727129_at) / RFU TMEM200A (11744735_a_at) / Fold change /veh TMEM200A (11744735_a_at) / RFU CCDC152 (11751479_a_at) / Fold change /veh CCDC152 (11751479_a_at) / RFU FAM211A (11726209_a_at) / Fold change /veh FAM211A (11726209_a_at) / RFU RGS16 (11746705_a_at) / Fold change /veh RGS16 (11746705_a_at) / RFU VCAN (11755009_s_at) / Fold change /veh VCAN (11755009_s_at) / RFU RHOB (11743442_s_at) / Fold change /veh RHOB (11743442_s_at) / RFU RGS16 (11720943_a_at) / Fold change /veh RGS16 (11720943_a_at) / RFU RGS16 (11720944_at) / Fold change /veh RGS16 (11720944_at) / RFU, VPS4B / Fold change vs veh, VPS4B / RFU, CREB1 / Fold change vs veh, CREB1 / RFU, DNAJC13 / Fold change vs veh, DNAJC13 / RFU, GNAQ / Fold change vs veh, GNAQ / RFU, CDK5R1 / Fold change vs veh, CDK5R1 / RFU, ZRANB3 / Fold change vs veh, ZRANB3 / RFU, CUL4A / Fold change vs veh, CUL4A / RFU, CCNY / Fold change vs veh, CCNY / RFU, UFL1 / Fold change vs veh, UFL1 / RFU, COG3 / Fold change vs veh, COG3 / RFU, DIAPH2 / Fold change vs veh, DIAPH2 / RFU, SKA2 / Fold change vs veh, SKA2 / RFU, AFF3 / Fold change vs veh, AFF3 / RFU, LMF1 / Fold change vs veh, LMF1 / RFU, IPO11 / Fold change vs veh, IPO11 / RFU, DFFB / Fold change vs veh, DFFB / RFU, FOXP1 / Fold change vs veh, FOXP1 / RFU, CARD8 / Fold change vs veh, CARD8 / RFU, STRN3 / Fold change vs veh, STRN3 / RFU, ADK / Fold change vs veh, ADK / RFU, RASSF2 / Fold change vs veh, RASSF2 / RFU, WIPF1 / Fold change vs veh, WIPF1 / RFU, LARP1B / Fold change vs veh, LARP1B / RFU, RASA1 / Fold change vs veh, RASA1 / RFU, RB1 / Fold change vs veh, RB1 / RFU, PPFIA1 / Fold change vs veh, PPFIA1 / RFU, MAT2A / Fold change vs veh, MAT2A / RFU, CCT5 / Fold change vs veh, CCT5 / RFU, WDR92 / Fold change vs veh, WDR92 / RFU, CUX1 / Fold change vs veh, CUX1 / RFU, TTC7A / Fold change vs veh, TTC7A / RFU, TMEM135 / Fold change vs veh, TMEM135 / RFU, DEPTOR / Fold change vs veh, DEPTOR / RFU, CPM / Fold change vs veh, CPM / RFU, DNAJB6 / Fold change vs veh, DNAJB6 / RFU, CACNA2D3 / Fold change vs veh, CACNA2D3 / RFU, DTX4 / Fold change vs veh, DTX4 / RFU, TFCP2 / Fold change vs veh, TFCP2 / RFU, GMCL1 /// GMCL1P1 / Fold change vs veh, GMCL1 /// GMCL1P1 / RFU, AEBP2 / Fold change vs veh, AEBP2 / RFU, SNHG1 /// SNORD22 /// SNORD25 /// SNORD26 /// SNORD27 /// SNORD28 /// SNORD29 /// SNORD31 / Fold change vs veh, SNHG1 /// SNORD22 /// SNORD25 /// SNORD26 /// SNORD27 /// SNORD28 /// SNORD29 /// SNORD31 / Fold change (Aza/veh), C12orf56 (ProbeSet 11735607_a_at) / Fold change (ACY-1035/veh), C12orf56 (ProbeSet 11735607_a_at) / Fold change (Aza/veh), FGFR1OP (ProbeSet 11751329_s_at) / Fold change (ACY-1035/veh), FGFR1OP (ProbeSet 11751329_s_at) / Fold change (Aza/veh), VPS36 (ProbeSet 11739960_a_at) / Fold change (ACY-1035/veh), VPS36 (ProbeSet 11739960_a_at) / RFU SYPL1 (11715823_x_at) / Fold change /veh SYPL1 (11715823_x_at) / RFU IGFBP7 (11715501_s_at) / Fold change /veh IGFBP7 (11715501_s_at) / RFU REEP3 (11722064_at) / Fold change /veh REEP3 (11722064_at) / RFU IGLL1 (11728026_x_at) / Fold change /veh IGLL1 (11728026_x_at): dose or concentration left out as unconfirmed
Settings: MV-4-11 cells, 48 hours

Nc1ncn([C@@H]2O[C@H](CO)[C@@H](O)[C@H]2O)c(=O)n1 [azacitidine]
Fold change /veh TMPRSS4 (11748680_a_at): 0.94
